From ChEMBL document CHEMBL1158713, “Anthecotulide: purification, analytical data, absence from chamomile preparations, stability and reactivity, and anti-infective testing” (J Nat Prod, 2005)
Calls of active or inactive are those of the source.

Assays:
Type in all cases: functional, organism-based
Staphylococcus aureus [1] = test: Antimicrobial activity against Staphylococcus aureus at < 10 ug/ml
Enterococcus faecalis = test: Antimicrobial activity against Enterococcus faecalis at < 10 ug/ml
Escherichia coli = test: Antimicrobial activity against Escherichia coli at < 10 ug/ml
Pseudomonas aeruginosa = test: Antimicrobial activity against Pseudomonas aeruginosa at < 10 ug/ml
Staphylococcus aureus [2] = test: Antimicrobial activity against methicillin-resistant Staphylococcus aureus at < 10 ug/ml
Enterococcus faecium = test: Antimicrobial activity against vancomycin-resistant Enterococcus faecium at < 10 ug/ml

Measured: Activity

C=C1C(=O)OCC1C/C=C(\C)CC(=O)C=C(C)C (stereo unspecified)
inactive: all assays above
